Source: patent publication US5489613A, “Carbacyclin derivatives, process for their preparation and compositions containing them” (priority 1983, dated 1996)
Values after ≈ are worked out from the molar mass of the structure shown.

How the values were obtained:
Type in all cases: cell-based
[1] = tested on: platelet aggregation (platelet-rich plasma); assay: Inhibition of platelet aggregation (ADP-induced), Born's turbidimetric method, rabbit blood; conditions: Oryctolagus cuniculus, 2 min, read-out: Concentration (ng/ml) for 50% inhibition, rabbit blood
Protocol: (§1) Platelet aggregation was determined by the following means: 0.05 ml of a test liquid (containing, in various concentrations, the compound whose inhibitory effect was to be tested) was added to 1 ml of this platelet-rich plasma; two minutes after the addition, 0.2 ml of a liquid containing adenosine diphosphate at a concentration of 5 μM was added; the increase in light transmission at 600 nm was determined by means of a platelet aggregometer manufactured by Bryston Co. Limited.

[2] = tested on: platelet aggregation (platelet-rich plasma); assay: Inhibition of platelet aggregation (ADP-induced), Born's turbidimetric method, human blood; conditions: 2 min, read-out: Concentration (ng/ml) for 50% inhibition, human blood
Protocol: as §1

blood platelets = assay: Inhibition of aggregation of blood platelets (thrombocyte agglutination), stated in words
[3] = rabbit platelet-rich plasma, adenosine diphosphate 5 μM, 2 min after addition of test liquid, 600 nm
[4] = human platelet-rich plasma, adenosine diphosphate 5 μM, 2 min after addition of test liquid, 600 nm

| IC50 [1, 3] [ng/mL] | IC50 [2, 4] [ng/mL] | SMILES | IC50 ([1]; Platelet) [ng/mL] | IC50 ([2]; Homo sapiens, Platelet) [ng/mL] | ability to inhibit aggregation of blood platelets (blood platelets) |
| --- | --- | --- | --- | --- | --- |
| 3.7 (≈ 10.6 nM) | 0.5 (≈ 1.43 nM) | O=C(O)CCCCC1=C[C@H]2C[C@@H](O)[C@H](/C=C/[C@@H](O)C3CCCC3)[C@H]2C1 [Compound 90, 3-(4-Carboxybutyl)-6β-(3α-hydroxy-3-cyclopentylprop-1-enyl)-7α-hydroxy-cis-bicyclo[3,3,0]oct-2-ene] |  |  |  |
| 3.3 (≈ 9.1 nM) | 0.9 (≈ 2.48 nM) | O=C(O)CCCCC1=C[C@H]2C[C@@H](O)[C@H](/C=C/[C@@H](O)C3CCCCC3)[C@H]2C1 [Compound 98, 3-(4-Carboxybutyl)-6β-(3α-hydroxy-3-cyclohexylprop-1-enyl)-7α-hydroxy-cis-bicyclo[3,3,0]oct-2-ene] |  |  |  |
|  | 1.1 (≈ 3.03 nM) | O=C(O)CCCCC1=C[C@H]2C[C@@H](O)[C@H](/C=C/[C@@H](O)CC3CCCC3)[C@H]2C1 [Compound 100, 3-(4-Carboxybutyl)-6β-(3α-hydroxy-4-cyclopentylbut-1-enyl)-7α-hydroxy-cis-bicyclo[3,3,0]oct-2-ene] |  |  |  |
| 5.9 (≈ 16.8 nM) | 3.6 (≈ 10.3 nM) | CCCCC[C@H](O)/C=C/[C@@H]1[C@H]2CC(CCCCC(=O)O)=C[C@H]2C[C@H]1O [Compound C, reference compound] |  |  | has the ability to inhibit aggregation blood platelets |

The next lines start with the compound.

| SMILES | IC50 [1, 3] [ng/mL] | IC50 [2, 4] [ng/mL] | IC50 ([1]; Platelet) [ng/mL] | IC50 ([2]; Homo sapiens, Platelet) [ng/mL] | ability to inhibit aggregation of blood platelets (blood platelets) |
| --- | --- | --- | --- | --- | --- |
| C=CCCCC(C)[C@H](O)/C=C/[C@@H]1[C@H]2CC(CCCCC(=O)O)=C[C@H]2C[C@H]1O (stereo partly drawn) [Compound 60, 3-(4-Carboxybutyl)-6β-(3α-hydroxy-4-methylnona-1,8-dienyl)-7α-hydroxy-cis-bicyclo[3,3,0]oct-2-ene] | 1.1 (≈ 2.92 nM) | 1.8 (≈ 4.78 nM) |  |  |  |
| CC#CCC(C)[C@H](O)/C=C/[C@@H]1[C@H]2CC(CCCCC(=O)O)=C[C@H]2C[C@H]1O (stereo partly drawn) [Compound 85, 3-(4-Carboxybutyl)-6β-(3α-hydroxy-4-methyloct-1-en-6-ynyl)-7α-hydroxy-cis-bicyclo[3,3,0]oct-2-ene] | 3.6 (≈ 9.99 nM) | 0.4 (≈ 1.11 nM) |  |  |  |
| CCCCC[C@H](O)/C=C/[C@H]1[C@H](O)CC(=O)[C@@H]1CCCCCCC(=O)O [Compound A, PGE1, reference compound] | 36 (≈ 102 nM) | 9.3 (≈ 26.2 nM) |  |  |  |
| CCCCC[C@H](O)/C=C/[C@@H]1[C@H]2C/C(=C/CCCC(=O)O)C[C@H]2C[C@H]1O [Compound B, carbacyclin] |  |  | 36 (≈ 103 nM) | 13.3 (≈ 37.9 nM) |  |
